Patent US10966426B2, “Herbicidal compositions comprising phenylpyrimidines” (BASF SE, priority 2016, dated 2021)

Assays:
Type in all cases: in vivo
Matricaria chamomilla = assay: greenhouse post-emergence treatment, MATCH; details: MATCH, 21 DAT
In short: (§1)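 Scale 0–100 damage rating (100 = complete destruction of above-ground parts, 0 = normal growth), read 2 to 4 weeks after post-emergence application of aqueous spray liquor to plants 3–15 cm tall.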

Poa annua = assay: greenhouse post-emergence treatment, POAAN; details: Poa annua, 504 h, read-out: % activity
In short: (§2)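 Plants were grown in loamy sand with about 3.0% humus to 3–15 cm height, then sprayed with actives formulated as 10% by weight emulsion concentrates in water. Held at 10-25° C. or 20-35° C. by species for 2 to 4 weeks; damage scored 0 (none) to 100 (complete destruction).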

Digitaria sanguinalis = assay: greenhouse post-emergence treatment, DIGSA; details: Digitaria sanguinalis, 504 h, DIGSA, 21 DAT, read-out: % activity
In short: (§3)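 Scoring used a 0 to 100 scale, with 100 denoting no emergence or full destruction of at least the above-ground parts, recorded within a 2 to 4 week test period. Test plants grew in loamy sand containing about 3.0% humus at 10-25° C. or 20-35° C., after direct sowing or transplanting, and received water-based treatments post-emergence.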

Setaria viridis = assay: greenhouse post-emergence treatment, SETVI; details: Setaria viridis, 504 h
In short: as §3

Papaver rhoeas = assay: greenhouse post-emergence treatment, PAPRH; details: Papaver rhoeas, 504 h
In short: as §1

Brachiaria decumbens = assay: greenhouse post-emergence treatment, BRADC; details: for % activity: cinmethylin solo (EC 750 g/l)
In short: as §2

Ambrosia elatior [1] = assay: greenhouse pre-emergence treatment, AMBEL; details: Ambrosia artemisiifolia, 480 h, 20 DAT, AMBEL, Table X1, read-out: % activity, solo application
In short: (§4)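 Damage rated on 0 to 100 scale (0 = normal growth, 100 = no emergence or total above-ground kill) after 2-4 weeks at species-dependent 10-25° C or 20-35° C. Seeds sown per species in loamy sand, ~3.0% humus, treated right after sowing with aqueous spray of single actives or 10% emulsion-concentrate mixtures, then hooded; additive expectation by Colby.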

Ambrosia elatior [2] = assay: greenhouse post-emergence treatment, AMBEL; details: cinmethylin solo (EC 750 g/l), 21 DAT, AMBEL
In short: as §2

Bromus sterilis = assay: greenhouse post-emergence treatment, BROST; details: Bromus sterilis, 504 h, read-out: % activity
In short: as §3

Avena fatua = assay: greenhouse pre-emergence treatment, AVEFA; details: Avena fatua, 480 h, 62.5 gai/ha (EC 750 g/l), 20 DAT, AVEFA, Table X1, read-out: % activity, solo application
In short: as §4

[3] = Urochloa decumbens, 504 h, read-out: % activity

Cc1ccccc1CO[C@@H]1C[C@@]2(C(C)C)CC[C@]1(C)O2 (racemic) [cinmethylin]
pest or weed control at 125 g/ha (Matricaria chamomilla; Matricaria chamomilla, 504 h, solo cinmethylin (EC 750 g/l) 125 gai/ha): 0%
% activity (Matricaria chamomilla; cinmethylin solo (EC 750 g/l), 125 gai/ha): 0%
pest or weed control at 62.5 g/ha (Poa annua): 70%
pest or weed control at 62.5 g/ha (Digitaria sanguinalis; solo cinmethylin (EC 750 g/l) 62.5 gai/ha): 0%
pest or weed control at 125 g/ha (Digitaria sanguinalis; solo cinmethylin (EC 750 g/l) 125 gai/ha): 15%
pest or weed control at 250 g/ha (Digitaria sanguinalis; solo cinmethylin (EC 750 g/l) 250 gai/ha): 20%
pest or weed control at 125 g/ha (Setaria viridis; SETVI, 21 DAT, solo cinmethylin (EC 750 g/l) 125 gai/ha): 55%
pest or weed control at 62.5 g/ha (Setaria viridis; read-out: % activity): 20%
pest or weed control at 500 g/ha (Setaria viridis; read-out: % activity): 85%
pest or weed control at 62.5 g/ha (Papaver rhoeas; PAPRH, 21 DAT, solo cinmethylin (EC 750 g/l) 62.5 gai/ha): 0%
pest or weed control at 125 g/ha (Papaver rhoeas; read-out: % activity): 20%
pest or weed control at 250 g/ha (Papaver rhoeas; read-out: % activity): 20%
pest or weed control at 500 g/ha (Papaver rhoeas; read-out: % activity): 55%
pest or weed control at 125 g/ha (Brachiaria decumbens; Urochloa decumbens, 504 h, BRADC, 21 DAT, solo cinmethylin (EC 750 g/l) 125 gai/ha, read-out: % activity): 0%
pest or weed control at 500 g/ha (Brachiaria decumbens; Urochloa decumbens, 504 h, BRADC, 21 DAT, solo cinmethylin (EC 750 g/l) 500 gai/ha): 20%
pest or weed control at 62.5 g/ha (Brachiaria decumbens; [3]): 0%
pest or weed control at 250 g/ha (Brachiaria decumbens; [3]): 10%
% activity (Brachiaria decumbens; 125 gai/ha, 21 DAT, BRADC): 0%
% activity (Brachiaria decumbens; 500 gai/ha, 21 DAT, BRADC): 20%
percent weed control (herbicidal activity, 0-100 scale) at 62.5 g/ha (Ambrosia elatior [1]; 62.5 gai/ha (EC 750 g/l)): 0%
percent weed control (herbicidal activity, 0-100 scale) at 125 g/ha (Ambrosia elatior [1]; 125 gai/ha (EC 750 g/l)): 0%
% activity (Ambrosia elatior [2]; 62.5 gai/ha): 0%
% activity (Ambrosia elatior [2]; 125 gai/ha): 0%
pest or weed control at 62.5 g/ha (Bromus sterilis): 10%
pest or weed control at 250 g/ha (Bromus sterilis): 25%
inhibition at 62.5 g/ha (Avena fatua): 10%
